Patent US12612644B2, “Scalable method for recombinant AAV production” (REGENXBIO Inc., priority 2018, dated 2026)

Tests used:
[1] = test system: HEK293 cells expressing AAV8 particles; assay: Large scale (50 liter) rAAV production using NaCl enhancer (Example 3); assay type: cell-based, human; conditions: 50 liter culture; NaCl increased by 60 mM 24 hours post transfection
Method: The effect of NaCl on rAAV yield was tested in 50 liter cultures of HEK293 cells expressing AAV8 particles encapsidating a transgene. HEK suspension cultures were grown using standard processes. Cells were diluted to ˜4×10e6 viable cells. The medium used included 100 mM NaCl. Cells were transfected 24 hours post dilution with a mixture of polyethylenimine and 3 plasmids encoding adeno-virus helper functions, transgene and AAV […]. 24 hours post transfection, sufficient NaCl was added to increase the final NaCl concentration by 60 mM. (i.e., the final NaCl concentration was ˜160 mM). Supernatant was harvested on day 4 post transfection. The processes yielded 1×10e+11 genome copy (GC)/ml and 9×10e+10. This is ˜2-fold higher than the yield of the same process without the increase in NaCl concentration following transfection.

[2] = test system: HEK293 cells expressing rAAV9 particles; assay: Effect of NaCl and/or sodium propionate on rAAV9 yield, microscale bioreactors (Example 5); assay type: cell-based, human; conditions: effects of other conditions averaged
Method: The effect of sodium chloride and sodium propionate (NaPr) (ThermoFisher Scientific) on rAAV yield in a suspension culture of HEK293 cells expressing rAAV9 particles encapsidating a transgene. HEK293 cells were seeded at 1×10e6 viable cell/ml density in advanced microscale bioreactors. The medium comprised 100 mM NaCl. At 48 hrs ECD (Elapsed Culture Duration), the cells were transfected with a mixture of polyethylenimine and 3 plasmids encoding adeno-virus helper functions, transgene and AAV 2/9 Rep/Cap. 4, 20, or 36 hours after transfection, NaCl, NaPr, anti-clump, EFC+, and/or Na valproate was added to the cultures. Conditions tested were 0, 30 mM and 60 mM NaCl, 0, 2 mM and 4 mM NaPr. Multiple conditions were tested using a Design of Experiment approach. The supernatant of the cultures was harvested at […], i.e., 5 days post-transfection. rAAV yields were obtained. […] Resulting titer improvement by adding NaCl and/or NaPr is shown in FIG. 3 where the effects of other tested conditions are averaged. […] The observed ˜2-fold increase is higher than what would be expected if the effect of NaPr and increased NaCl were additive.

[3] = test system: CHO cells; conditions: cited from earlier work
[4] = test system: recombinant IgG production; conditions: alone; small culture conditions less than 50 L; cited from earlier work

[Cl-].[Na+] [NaCl, sodium chloride]
yield relative to the same process without the increase in NaCl concentration [1]: ~2 fold | increase in the titer ([2]; increased NaCl in the absence of sodium propionate): ~1.2 fold

CCC(=O)O [propionic acid]
production of recombinant B-domain deleted factor VIII [3]: enhanced production

CCC(=O)[O-].[Na+] [sodium propionate]
increase in the titer ([2]; 2 mM sodium propionate in the absence of increased NaCl): ~1.5 fold | effect on recombinant IgG production [4]: no strong effect alone

CCCC(=O)O [butyric acid]
cell growth [3]: inhibited cell growth | production of recombinant B-domain deleted factor VIII [3]: enhanced production
